According to patent publication US20100041089A1, “IMPROVED METHOD FOR DETECTING CHEMICAL […]” (priority 2006, published 2010):

Test system: yeast genes (expressed mRNA)
Test: DNA chip measurement of expressed mRNA of yeast genes after culture with a toxic chemical substance
Type: cell-based, Saccharomyces cerevisiae S288C
Settings: for The level of expressed mRNA in the presence of chemical substance/The level of expressed mRNA in the absence of chemical substance: cultured two hours with substance; for level of expressed mRNA in the presence of chemical substance / level in the absence of chemical substance: cultured two hours with the chemical substance
Procedure, shortened: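 Two-hour exposure of growing S. cerevisiae S288C (YPD, 25° C) to a sublethal toxicant preceded RNA isolation. Fluorescent cDNA was hybridized to a whole-genome array; a treated-to-untreated signal ratio of two or more was taken as significant.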

Cl[C@H]1[C@H](Cl)[C@@H](Cl)[C@@H](Cl)[C@H](Cl)[C@H]1Cl [(7), γ-Hexachlorocyclohexane]
The level of expressed mRNA in the presence of chemical substance/The level of expressed mRNA in the absence of chemical substance (yeast gene YJL151C): 1.4 | The level of expressed mRNA in the presence of chemical substance/The level of expressed mRNA in the absence of chemical substance (yeast gene YJL152W): 1.2 | The level of expressed mRNA in the presence of chemical substance/The level of expressed mRNA in the absence of chemical substance (yeast gene YJL161W): 3.6 | The level of expressed mRNA in the presence of chemical substance/The level of expressed mRNA in the absence of chemical substance (yeast gene YJL171C): 1.4 | The level of expressed mRNA in the presence of chemical substance/The level of expressed mRNA in the absence of chemical substance (yeast gene YJR008W): 2.9 | level of expressed mRNA in the presence of chemical substance / level in the absence of chemical substance (yeast gene YJR030C): 0.7 | The level of expressed mRNA in the presence of chemical substance/The level of expressed mRNA in the absence of chemical substance (yeast gene YJR054W): 0.9 | level of expressed mRNA in the presence of chemical substance / level in the absence of chemical substance (yeast gene YKL051W): 0.6 | The level of expressed mRNA in the presence of chemical substance/The level of expressed mRNA in the absence of chemical substance (yeast gene YKL071W): 3.7 | The level of expressed mRNA in the presence of chemical substance/The level of expressed mRNA in the absence of chemical substance (yeast gene YKL086W): 0.7 | level of expressed mRNA in the presence of chemical substance / level in the absence of chemical substance (yeast gene YKL097C): 0.8 | level of expressed mRNA in the presence of chemical substance / level in the absence of chemical substance (yeast gene YKL100C): 1.2 | The level of expressed mRNA in the presence of chemical substance/The level of expressed mRNA in the absence of chemical substance (yeast gene YKL151C): 5.6 | The level of expressed mRNA in the presence of chemical substance/The level of expressed mRNA in the absence of chemical substance (yeast gene YKL153W): 1.1 | The level of expressed mRNA in the presence of chemical substance/The level of expressed mRNA in the absence of chemical substance (yeast gene YKL195W): 2.1 | level of expressed mRNA in the presence of chemical substance / level in the absence of chemical substance (yeast gene YKR040C): 0.9 | The level of expressed mRNA in the presence of chemical substance/The level of expressed mRNA in the absence of chemical substance (yeast gene YKR091W): 1.3 | The level of expressed mRNA in the presence of chemical substance/The level of expressed mRNA in the absence of chemical substance (yeast gene YLR054C): 1.1 | The level of expressed mRNA in the presence of chemical substance/The level of expressed mRNA in the absence of chemical substance (yeast gene YLR149C): 1.6 | The level of expressed mRNA in the presence of chemical substance/The level of expressed mRNA in the absence of chemical substance (yeast gene YLR152C): 1.4 | The level of expressed mRNA in the presence of chemical substance/The level of expressed mRNA in the absence of chemical substance (yeast gene YLR194C): 1.0 | level of expressed mRNA in the presence of chemical substance / level in the absence of chemical substance (yeast gene YLR226W): 1.9 | The level of expressed mRNA in the presence of chemical substance/The level of expressed mRNA in the absence of chemical substance (yeast gene YLR324W): 1.0 | level of expressed mRNA in the presence of chemical substance / level in the absence of chemical substance (yeast gene YLR338W): 0.9 | The level of expressed mRNA in the presence of chemical substance/The level of expressed mRNA in the absence of chemical substance (yeast gene YLR350W): 1.2 | The level of expressed mRNA in the presence of chemical substance/The level of expressed mRNA in the absence of chemical substance (yeast gene YLR387C): 1.1 | level of expressed mRNA in the presence of chemical substance / level in the absence of chemical substance (yeast gene YLR392C): 1.0 | level of expressed mRNA in the presence of chemical substance / level in the absence of chemical substance (yeast gene YLR415C): 1.2 | level of expressed mRNA in the presence of chemical substance / level in the absence of chemical substance (yeast gene YLR427W): 1.2 | The level of expressed mRNA in the presence of chemical substance/The level of expressed mRNA in the absence of chemical substance (yeast gene YLR460C): 1.1 | level of expressed mRNA in the presence of chemical substance / level in the absence of chemical substance (yeast gene YML013W): 1.3 | level of expressed mRNA in the presence of chemical substance / level in the absence of chemical substance (yeast gene YML029W): 1.1 | level of expressed mRNA in the presence of chemical substance / level in the absence of chemical substance (yeast gene YML041C): 1.4 | level of expressed mRNA in the presence of chemical substance / level in the absence of chemical substance (yeast gene YML079W): 1.2 | The level of expressed mRNA in the presence of chemical substance/The level of expressed mRNA in the absence of chemical substance (yeast gene YML117W): 0.7 | The level of expressed mRNA in the presence of chemical substance/The level of expressed mRNA in the absence of chemical substance (yeast gene YMR009W): 1.9 | The level of expressed mRNA in the presence of chemical substance/The level of expressed mRNA in the absence of chemical substance (yeast gene YMR067C): 1.2 | level of expressed mRNA in the presence of chemical substance / level in the absence of chemical substance (yeast gene YMR068W): 1.5 | level of expressed mRNA in the presence of chemical substance / level in the absence of chemical substance (yeast gene YMR071C): 1.8 | The level of expressed mRNA in the presence of chemical substance/The level of expressed mRNA in the absence of chemical substance (yeast gene YMR090W): 2.7 | The level of expressed mRNA in the presence of chemical substance/The level of expressed mRNA in the absence of chemical substance (yeast gene YMR095C): 1.2 | The level of expressed mRNA in the presence of chemical substance/The level of expressed mRNA in the absence of chemical substance (yeast gene YMR097C): 1.5 | The level of expressed mRNA in the presence of chemical substance/The level of expressed mRNA in the absence of chemical substance (yeast gene YMR102C): 1.8 | The level of expressed mRNA in the presence of chemical substance/The level of expressed mRNA in the absence of chemical substance (yeast gene YMR107W): 1.2 | level of expressed mRNA in the presence of chemical substance / level in the absence of chemical substance (yeast gene YMR160W): 1.0 | The level of expressed mRNA in the presence of chemical substance/The level of expressed mRNA in the absence of chemical substance (yeast gene YMR180C): 1.7 | The level of expressed mRNA in the presence of chemical substance/The level of expressed mRNA in the absence of chemical substance (yeast gene YMR184W): 1.6 | The level of expressed mRNA in the presence of chemical substance/The level of expressed mRNA in the absence of chemical substance (yeast gene YMR191W): 2.0 | The level of expressed mRNA in the presence of chemical substance/The level of expressed mRNA in the absence of chemical substance (yeast gene YMR295C): 1.3 | The level of expressed mRNA in the presence of chemical substance/The level of expressed mRNA in the absence of chemical substance (yeast gene YMR316W): 2.0 | level of expressed mRNA in the presence of chemical substance / level in the absence of chemical substance (yeast gene YNL026W): 1.5 | The level of expressed mRNA in the presence of chemical substance/The level of expressed mRNA in the absence of chemical substance (yeast gene YNL044W): 0.9
